Data on 22 molecules can be found in US8735575B2, “Phenoxazine derivatives and methods of use thereof” (Washington University, priority 2010, dated 2014).

One series is described as follows: physchem. In kind it is physicochemical. On the procedure:
(§1) The logPoct value is widely used in quantitative structure-activity relationship (QSAR) studies and rational drug design as a measure of molecular hydrophobicity. Hydrophobicity affects drug absorption, bioavailability, hydrophobic drug-receptor interactions, metabolism of molecules, and their toxicity. […] The mixture will be incubated with agitation for 30 min until ionic and non-ionic forms of test compound reach equilibrium. Two layers will be separated by centrifugation. Test compound's concentrations in octanol and water layers will be determined by UV/VIS spectrophotometry. The logPoct value will be calculated from log(concentration in n-octanol fraction/concentration in water fraction). Experiments will be repeated at least 3 times with triplicated samples.

Series [1] concerns the target T1, CAA (Homo sapiens, UniProt P05067). As to the kind of experiment: In situ binding assay on CAA in fixed brain sections of Tg2576 mice. On the set-up: species or system mouse (Tg2576); Binding affinity in situ, Bmax on CAA: unit not given here. The conditions noted are these: for Kd: read-out: Binding affinity in situ, KD (nM) on CAA.
Series [2] deals with T1, CAA. Briefly: Binding affinities for CAA on isolated vessels determined by fluorescent binding. The settings on record: read-out: Binding affinity (nM) Ki. As to the method: The isolation of cerebral vessels for biochemical analysis will be performed as described (78, 98). […] After the cerebellum is removed, the brain will be homogenized in fivefold excess of vessel buffer. An equal volume of 26% dextran will be added, and the tissue will be centrifuged at 6200×g for 30 min at 4° C. The resulting vessels form a pellet, whereas the parenchymal “vessel-free” material forms a solid, compact disc at the top of the solution. The […] will be resuspended in vessel buffer and passed over a 40-μm nylon mesh to capture vessels. Vessel and parenchymal material will be lysed in 5 M guanidine, 50 mM Tris, pH 8, with protease inhibitor cocktail (Roche) for 3 hr.

The conditions of series [3]: cited from earlier work; for Lipophilicity Poct: data from the previous report (Klunk et al. 2002).
The test system of series [4] is cerebrovascular Aβ deposits. Briefly: In vivo live imaging of CAA amyloid deposits through closed cranial window. More on the design: species or system mouse (Tg2576). The settings on record: 16-month old Tg2576 mice, resorufin 2 μM. On the procedure:
FIG. 4 depicts in vivo live imaging of CAA amyloid deposits through closed cranial window. A,B. Closed cranial window was prepared on the right parietal bone of 16-month-old Tg2576 mice. Leptomeningeal arterioles (B) were subjected to live imaging using a fluorescent microscope. […] Scale bars: in C-E: 250 μm, in E: 100 μm.
as §1

The test system of series [5] is CAA vs. neuritic plaques. Briefly: Fluorescent co-staining of fixed brain sections of Tg2576 mice. The settings on record: aged Tg2576 mice, FIG. 1. More on the design: species or system mouse (Tg2576). The text has this: (§2) Tg2576 mice are a well characterized mouse model of AD and CAA. They develop congophilic Aβ aggregates within neuritic plaques and leptomeningeal and cortical penetrating arteries at 11 months of age (Hsiao et al., 1996; Kawarabayashi et al., 2001; Fryer et al., 2005; Han et al., 2008).

The next series deals with neuritic plaques (Homo sapiens, UniProt P05067). Briefly: In situ binding assay on neuritic plaques in fixed brain sections of Tg2576 mice. On the set-up: species or system mouse (Tg2576). The conditions noted are these: for Kd: in situ, Tg2576 brain sections, read-out: Binding affinity in situ, KD (nM) on Plaques.
Text: as §2
(§3) The Ki values for CAA vs. neuritic plaques will be calculated utilizing the fluorescent amyloid-ligand methoxy-X34 and fluorescent microscopic method. […] Tissue sections (3 sections per reaction) will be then mounted and coverslipped. Photographs of methoxy-X34 binding images will be taken using a Nikon fluorescent microscope. The fluorescent intensity on cerebral amyloid deposits and neuritic plaques will be separately quantified using Image J software. Finally, Ki values will be calculated by plotting % bound vs. log concentrations of competitors followed by non-linear regression using the GraphPad Prism software. The maximum binding will be obtained from the methoxy-X34 intensity in the absence of competitors, while non-specific binding will be detected by the fluorescent intensity in brain tissues incubated without methoxy-X34.
(§4) Tg2576 mice or littermate controls at 15 months of age will be perfused with phosphatebuffered saline (PBS) for 5 min. Brains will be removed, fixed in 4% paraformaldehyde, and preserved in 30% glucose-PBS solution at 4° C. Brains will be coronally sectioned using a microtome and kept in cryoprotectant solution at −20° C. To label amyloid deposits, brain sections (3 sections per reaction) will be permeabilized with PBS containing 0.25% Triton X-100 for 20 min at room temperature, followed by incubation with 1 μM methoxy-X34 in the presence or absence of competitors at various concentrations (10-9-10-6 M). Sections will be subjected to fluorescent microscopy using a Nikon Eclipse C600 microscope. The fluorescent intensity of methoxy-X34 in vessels and neuritic plaques will be quantified using the ImageJ software. The binding affinity (Ki) will be calculated using the GraphPad Prism software.

Series [6] concerns CAA vs. neuritic plaques. Briefly: Staining of paraffin-embedded cortical sections of a human AD patient. The settings on record: autopsied AD patient cortical sections, FIG. 3.
Text: as §2

The conditions of series [7]: normal mice, cited from earlier work.
Series [8] concerns the target T1, CAA. Briefly: In situ binding assay on CAA in fixed brain sections of Tg2576 mice. On the set-up: species or system mouse (Tg2576).
Text: as §2, §3, §4

Read-outs that look alike come from different tables or passages of the source.

Broadly, the logP is the decadic logarithm of the partition coefficient of the neutral form, usually between octanol and water. As to `O=c1ccc2nc3ccc(OCc4ccccc4)cc3oc-2c1` [Benzyloxy-resorufin], in the series “physchem”, the log partition coefficient (logP) worked out at 2.21. For the same molecule, the “Binding affinity in situ, Bmax on CAA” value at CAA [1] amounted to 410.
As a reminder, the Ki is the equilibrium dissociation constant of an inhibitor or competing ligand from its target. For orientation: Kd means the free concentration of one partner at which half of the binding sites on the other are occupied at equilibrium, for simple one-to-one binding. For `CCOc1ccc2nc3ccc(=O)cc-3oc2c1` [Ethoxy-resorufin], in “physchem”, the log partition coefficient (logP) was 2.35. The Ki at CAA [2] stood at 262 nM. At CAA [1], the “Binding affinity in situ, Bmax on CAA” value worked out at 107 and the Kd turned out to be 247 nM.
Consider `COc1cc(/C=C/c2ccc(O)cc2)ccc1/C=C/c1ccc(O)cc1` [Methoxy-X04, reference compound], for which the “Lipophilicity Poct” value in series [3] is reported as “^b2.6”. Further, the “fluorescent labeling in live mice, topical application through cranial window” value in series [4] is “present in both cerebral arteries and parenchymal neuritic plaques”.
With `[11CH3]Oc1ccc(C=Cc2ccc(C=Cc3ccc(O)c(C(=O)O)c3)cc2)cc1C(=O)O` [Methoxy-X34], in series [3], the “Lipophilicity Poct” value is listed as “^b0.19”.
`COc1ccc2nc3ccc(=O)cc-3oc2c1` [Methoxy-resorufin]: in “physchem”, the logP worked out at 1.95.
In “physchem”, `CCCCCOc1ccc2nc3ccc(=O)cc-3oc2c1` [Pentoxy-resorufin] came in with a logP of 2.34.
Same read-out and setting: then `CC(=O)Oc1ccc2nc3ccc(=O)cc-3oc2c1` [Resorufin acetate], with 2.79.
Consider `O=c1ccc2nc3ccc(O)cc3oc-2c1` [Resorufin], for which the “staining of CAA vs. neuritic plaques” value with CAA vs. neuritic plaques [5] was “CAA>>>neuritic plaques”. In addition, at neuritic plaques (in situ binding assay at a concentration of 160 μM), the “binding to neuritic plaques” value is “negligible”. In the series “physchem”, the logP came out at 0.387. Besides, in the series with CAA vs. neuritic plaques [6], the “staining of 3D6-positive arterioles vs. neuritic plaques” value was “prominent in 3D6-positive cerebral arterioles but was rarely seen in 3D6-positive neuritic plaques”. For the same molecule, the “Binding affinity in situ, Bmax on CAA” value at CAA [1] was 1523/ 885.
`C#COc1ccc2nc3ccc(=O)cc-3oc2c1` [WC-5-1]: the Kd on neuritic plaques is above 4000 nM. Also, the “Lipophilicity Poct” value in “physchem” stood at 2.407. Further, at CAA [1], the “Binding affinity in situ, Bmax on CAA” value amounted to 485 and the Kd turned out to be 173 nM.
The like results for `O=c1ccc2nc3ccc(OCCF)cc3oc-2c1` [WC-5-2] were, in that order, above 4000 nM, 2.774, 869 and 235 nM.
With `O=c1ccc2nc3ccc(OCc4cn(CCF)nn4)cc3oc-2c1` [WC-5-3], the logP in “physchem” turned out to be 2.04. Besides, the “Binding affinity in situ, Bmax on CAA” value on CAA [1] was found to be 527.
Take `COc1cccc(COc2ccc3nc4ccc(=O)cc-4oc3c2)c1` [WC-5-4]: the logP in the series “physchem” was 2.97. Also, the “Binding affinity in situ, Bmax on CAA” value on CAA [1] is recorded as 699.
The like results for `COc1ccc(COc2ccc3nc4ccc(=O)cc-4oc3c2)cc1` [WC-5-5] were, in that order, 1.91 and 135.
The corresponding values for `O=c1ccc2nc3ccc(OCc4ccc(OCCF)cc4)cc3oc-2c1` [WC-5-7] are 3.42 and 1304.
`CC(=O)OCCOc1ccc2nc3ccc(=O)cc-3oc2c1` [WC-5-8]: the logP in “physchem” amounted to 2.09.
Turning to `O=c1ccc2nc3ccc(OCCBr)cc3oc-2c1` [WC-5-9], in the series “physchem”, the log partition coefficient (logP) is 2.2.
Regarding `O=c1ccc2nc3ccc(OCc4ccc(I)cc4)cc3oc-2c1` [WC-5-31], the “Lipophilicity Poct” value in the series “physchem” (30 min) is recorded as >4.89??.
As for `[11CH3]Nc1ccc(-c2nc3ccc(O)cc3s2)cc1` [[11C]PIB], the “brain uptake at 2 min after injection” value in series [7] (2 min) is listed as 3.2 % ID/g. Moreover, the “brain level after washout at 60 min” value in series [7] (60 min) was 0.21 % ID/g. For the same molecule, the “fraction in the brain cleared within 60 min” value in series [7] (within 60 min) was 93%.
For the molecule `[11CH3]Oc1cc(C=Cc2ccc(O)cc2)ccc1C=Cc1ccc(O)cc1` [[11C]methoxy-X04], in [3] (cited study (96)), the logPoct was 2.6.
`CCOc1ccc2nc3ccc(=O)cc-3oc2c1` [ethyl-resorufin]: at CAA [8], the “binding affinity for CAA deposits, in words” value was “low nanomolar range”. In addition, in “physchem”, the “lipophilicity, in words” value was “moderate lipophilicity”.
On to methoxyphenyl-resorufin, for which the “binding affinity for CAA deposits, in words” value on CAA [8] is “low nanomolar range”. In the series “physchem”, the “lipophilicity, in words” value is given as “moderate lipophilicity”.
The like results for phenyl-resorufin were, in that order, “low nanomolar range” and “moderate lipophilicity”.
